Assay results published in the supplement of paper PMC10307832.

Key:
Experiment in all cases: relative viability (nuclei count vs DMSO), 5 days (fraction); higher = more cells survive
Carboplatin + Olaparib = compound: C1CC(C1)(C(=O)O)C(=O)O.[NH2-].[NH2-].[Pt+2] [Carboplatin] + O=C(c1cc(Cc2n[nH]c(=O)c3ccccc23)ccc1F)N1CCN(C(=O)C2CC2)CC1 [Olaparib] (partner 8 µM)
How it was run: (§1)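 Cells from lung cancer lines were seeded into 1536-well plates and, one day later, dosed by pin tool. Treatments were either a single drug or a fixed dose of an anchor drug with five library-drug doses (not always all listed) in √10 steps. After 5 days, nuclei were stained in a one-step fixation (final 0.05% Triton X-100, 1% formaldehyde, 1 ug/ml Hoechst) and counted on 4× images, and relative viability is the treated-to-vehicle nuclei ratio, as the median of duplicate plates.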

GSK126 + Pictilisib = compound: CC[C@H](C)N1C=C(C2=C(C=C(C=C21)C3=CN=C(C=C3)N4CCNCC4)C(=O)NCC5=C(C=C(NC5=O)C)C)C [GSK126] + CS(=O)(=O)N1CCN(Cc2cc3nc(-c4cccc5[nH]ncc45)nc(N4CCOCC4)c3s2)CC1 [Pictilisib] (partner 1 µM)
How it was run: as §1

GSK126 + Vorinostat = compound: CC[C@H](C)N1C=C(C2=C(C=C(C=C21)C3=CN=C(C=C3)N4CCNCC4)C(=O)NCC5=C(C=C(NC5=O)C)C)C [GSK126] + O=C(CCCCCCC(=O)Nc1ccccc1)NO [Vorinostat] (partner 1 µM)
How it was run: as §1

MLN4924 + Decitabine = compound: NS(=O)(=O)OC[C@@H]1C[C@@H](n2ccc3c(N[C@H]4CCc5ccccc54)ncnc32)C[C@@H]1O [MLN4924] + Nc1ncn([C@H]2C[C@H](O)[C@@H](CO)O2)c(=O)n1 [Decitabine] (partner 2 µM)
How it was run: as §1

UMC-11
relative viability (Carboplatin + Olaparib; first compound 0.08 µM): 0.72
relative viability (Carboplatin + Olaparib; first compound 0.253 µM): 0.573
relative viability (Carboplatin + Olaparib; first compound 0.8 µM): 0.433
relative viability (Carboplatin + Olaparib; first compound 2.53 µM): 0.381
relative viability (Carboplatin + Olaparib; first compound 8 µM): 0.345
relative viability (GSK126 + Pictilisib; first compound 0.08 µM): 0.91
relative viability (GSK126 + Pictilisib; first compound 0.253 µM): 0.85
relative viability (GSK126 + Pictilisib; first compound 0.8 µM): 0.882
relative viability (GSK126 + Pictilisib; first compound 2.53 µM): 0.829
relative viability (GSK126 + Pictilisib; first compound 8 µM): 0.714
relative viability (GSK126 + Vorinostat; first compound 0.08 µM): 0.409
relative viability (GSK126 + Vorinostat; first compound 0.253 µM): 0.381
relative viability (GSK126 + Vorinostat; first compound 0.8 µM): 0.356
relative viability (GSK126 + Vorinostat; first compound 2.53 µM): 0.459
relative viability (GSK126 + Vorinostat; first compound 8 µM): 0.341
relative viability (MLN4924 + Decitabine; first compound 0.04 µM): 0.559
relative viability (MLN4924 + Decitabine; first compound 0.1265 µM): 0.511
relative viability (MLN4924 + Decitabine; first compound 0.4 µM): 0.402
relative viability (MLN4924 + Decitabine; first compound 1.265 µM): 0.309
relative viability (MLN4924 + Decitabine; first compound 4 µM): 0.277
